# Target: p47phox (Homo sapiens, UniProt P14598)
# Test: ELISA: his-p47phox binding to immobilized biotin-p22phox peptide with […] IAA
# Assay type: biochemical
# Sequence of p47phox (P13498 2-195): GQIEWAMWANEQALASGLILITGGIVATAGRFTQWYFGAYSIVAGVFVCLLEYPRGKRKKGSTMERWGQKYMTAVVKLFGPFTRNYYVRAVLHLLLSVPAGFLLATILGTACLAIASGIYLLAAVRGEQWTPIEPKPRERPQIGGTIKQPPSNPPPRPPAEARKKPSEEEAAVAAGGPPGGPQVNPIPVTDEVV
# Sequence of p47phox (P14598 whole entry): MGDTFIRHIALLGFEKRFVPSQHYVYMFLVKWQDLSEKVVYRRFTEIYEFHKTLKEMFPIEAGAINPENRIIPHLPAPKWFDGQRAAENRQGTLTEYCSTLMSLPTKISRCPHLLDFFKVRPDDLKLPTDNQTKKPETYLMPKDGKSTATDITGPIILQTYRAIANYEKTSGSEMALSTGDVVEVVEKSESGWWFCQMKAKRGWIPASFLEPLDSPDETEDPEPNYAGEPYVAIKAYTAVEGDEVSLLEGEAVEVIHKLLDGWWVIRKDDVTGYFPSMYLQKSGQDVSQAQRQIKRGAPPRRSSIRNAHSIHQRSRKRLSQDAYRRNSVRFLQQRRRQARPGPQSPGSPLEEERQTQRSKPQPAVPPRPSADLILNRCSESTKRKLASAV
structure (smiles),measurement,value
"NC(=O)CI [IAA, iodoacetamide]",% drop in bound p47phox at 1 μM,> 50 % drop in bound p47phox at 1 μM

# Reference: paper PMC2723721 (Bioorganic & medicinal chemistry, 2009)
